# Assay results: US4122077A, “Somatostatin analogs” (American Home Products Corporation, priority 1977, dated 1978)
# Where a SMILES comes first, the peptide text is derived from it. Bridges are numbered along the chain shown (N, C = ends). [ ]: non-standard residue; d: D form.
# How the values were obtained:
# [1] = tested on: glucagon; test: Suppression of growth hormone, glucagon and insulin (arginine-stimulated, nembutal rats): glucagon; type: in vivo; conditions: arginine challenge
# Procedure: (§1) Albino male rats are arranged in three groups (nine rats/group) and injected i.p. with nembutal at 50mg/kg. 15 minutes after the nembutal injection they are injected s.c. according to group with (a) test compound, typically 10-2000 μg/kg.; (b) SRIF 200 μg/kg.; or (c) physiological saline. 10 minutes later 0.5 ml. of arginine (300 mg/ml., pH 7.2) is injected into the heart. The rats are decapitated 5 minutes after receiving the arginine, and the blood is collected into Trasylol-EDTA. Appropriate aliquots are then assayed for growth hormone, glucagon and insulin. […] Comparisons between control and experimental values are statistically evaluated by the analysis of variants method and statistical significance (p) at 0.05 or lower is used as the index of activity.
# [2] = tested on: growth hormone (GH); test: Suppression of growth hormone (duration of activity after sc injection); type: in vivo, rats
# Procedure: A subcutaneous (sc) injection of peptide solubilized or suspended in physiological saline, is given to Charles River CD® nonfasted male rats. Matched saline control solution sc injected rats serve as control animals so that every experimental rat is paired with a control rat. The rats are kept in separate cages and 20 minutes before the end of the test time period they are given an intraperitoneal (i.p.) injection of Nembutal® at a dose of 50 mg/kg. Blood samples are obtained by cardiac puncture and the plasma separated for the radioimmunoassay of growth hormone (GH) concentration (ng/ml.). Time periods after injection of 2, 4, 5, and 6 hours are generally used to test the duration of the activity of the peptide to suppress circulating peripheral GH levels. Comparisons between control and experimental GH values at each time are evaluated by the Student "t" test and statistical significance (p) at the 0.05 level or lower is used as the index of activity.
# [3] = tested on: insulin; test: Suppression of growth hormone, glucagon and insulin (arginine-stimulated, nembutal rats): insulin; type: in vivo; conditions: arginine challenge
# Procedure: as §1
# [4] = tested on: growth hormone; test: Suppression of growth hormone, glucagon and insulin (arginine-stimulated, nembutal rats): GH; type: in vivo
# Procedure: as §1
# [5] = 200 μg/kg. s.c., arginine challenge (table 5)
# [6] = 100 μg/kg. s.c., arginine challenge (table 5)
SMILES,"GH, 2 Hours ([2]; 1000 μg/kg. sc, rats) [ng/mL]","GH, 4 Hours ([2]; 1000 μg/kg. sc, rats) [ng/mL]",Glucagon ([1]; 100 μg/kg. s.c.) [pg/mL],Glucagon ([1]; 200 μg/kg. s.c.) [pg/mL],Insulin ([3]; 100 μg/kg. s.c.) [μU/ml.],Insulin ([3]; 200 μg/kg. s.c.) [μU/ml.],"GH [4, 6]",other results
"C[C@@H](O)[C@@H]1NC(=O)[C@H](CCCCN)NC(=O)[C@@H](Cc2c[nH]c3ccccc23)NC(=O)[C@H](Cc2ccccc2)NC(=O)[C@H](Cc2ccccc2)NC(=O)[C@@H](Cc2ccc(O)cc2)NC(=O)[C@@H](CCCNC(=N)N)NC(=O)[C@@H](N)CSSC[C@H](C(=O)O)NC(=O)[C@H](CO)NC(=O)[C@H]([C@@H](C)O)NC(=O)[C@H](Cc2ccccc2)NC1=O [H, L-Cysteinyl-D-Arginyl-D-Tyrosyl-L-Phenylalanyl-L-Phenylalanyl-D-Tryptophyl-L-Lysyl-L-Threonyl-L-Phenylalanyl-L-Threonyl-L-Seryl-D-Cysteine Cyclic (1-12)-Disulfide] (H-C[dR][dY]FF[dW]KTFTS[dC]-OH; disulfide 1-12)",75 ± 4,144 ± 21,,,,,,"Glucagon ([1]; 25 μg/kg. s.c.): 56 ± 6 pg/mL; Insulin ([3]; 25 μg/kg. s.c.): 128 ± 11 μU/ml.; GH ([4]; 25 μg/kg. s.c., arginine challenge (table 5)): 23 ± 4"
"C[C@@H](O)[C@@H]1NC(=O)[C@H](Cc2ccccc2)NC(=O)[C@H]([C@@H](C)O)NC(=O)[C@H](CCCCN)NC(=O)[C@@H](Cc2c[nH]c3ccccc23)NC(=O)[C@H](Cc2ccccc2)NC(=O)[C@H](Cc2ccccc2)NC(=O)[C@@H](Cc2c[nH]c3ccccc23)NC(=O)[C@@H](Cc2ccc(O)cc2)NC(=O)[C@@H](N)CSSC[C@@H](C(=O)O)NC(=O)[C@H](CO)NC1=O [B, L-Cysteinyl-D-Tyrosyl-D-Tryptophyl-L-Phenylalanyl-L-Phenylalanyl-D-Tryptophyl-L-Lysyl-L-Threonyl-L-Phenylalanyl-L-Threonyl-L-Seryl-L-Cysteine Cyclic (1-12)-Disulfide] (H-C[dY][dW]FF[dW]KTFTSC-OH; disulfide 1-12)",,,5 ± 1,44 ± 9,170 ± 15,239 ± 17,,"Glucagon ([1]; 10 μg/kg. s.c.): 36 ± 4 pg/mL; Glucagon ([1]; 300 μg/kg. s.c.): 38 ± 8 pg/mL; Glucagon ([1]; 500 μg/kg. s.c.): 18 ± 4 pg/mL; plasma growth hormone (GH) concentration, 2 Hr. ([2]; 1 mg/kg. sc, nonfasted male rats, 2 Hr. after injection): 111 ± 14 ng/mL; plasma growth hormone (GH) concentration, 4 Hr. ([2]; 1 mg/kg. sc, nonfasted male rats, 4 Hr. after injection): 67 ± 14 ng/mL; plasma growth hormone (GH) concentration, 5 Hr. ([2]; 1 mg/kg. sc, nonfasted male rats, 5 Hr. after injection): 151 ± 18 ng/mL; plasma growth hormone (GH) concentration, 2 Hr. (second column headed 2 Hr.) ([2]; 1 mg/kg. sc, nonfasted male rats, second 2 Hr. column of table 3): 133 ± 34 ng/mL; Insulin ([3]; 10 μg/kg. s.c.): 162 ± 13 μU/ml.; Insulin ([3]; 300 μg/kg. s.c.): 153 ± 9 μU/ml.; Insulin ([3]; 500 μg/kg. s.c.): 116 ± 8 μU/ml.; GH ([4]; 10 μg/kg. s.c., 15 minutes after dose, arginine challenge): 125 ± 26 ng/mL; GH ([4]; 100 μg/kg. s.c., 15 minutes after dose, arginine challenge): 43 ± 7 ng/mL; GH ([4]; 500 μg/kg. s.c., 15 minutes after dose, arginine challenge): 38 ± 6 ng/mL"
"C[C@@H](O)[C@@H]1NC(=O)[C@H](CCCCN)NC(=O)[C@@H](Cc2c[nH]c3ccccc23)NC(=O)[C@H](Cc2ccccc2)NC(=O)[C@H](Cc2ccccc2)NC(=O)[C@@H](Cc2c[nH]c3ccccc23)NC(=O)[C@@H](Cc2ccc(O)cc2)NC(=O)[C@@H](N)CSSC[C@H](C(=O)O)NC(=O)[C@H](CO)NC(=O)[C@H]([C@@H](C)O)NC(=O)[C@H](Cc2ccccc2)NC1=O [Compound I, L-Cysteinyl-D-Tyrosyl-D-Tryptophyl-L-Phenylalanyl-L-Phenylalanyl-D-Tryptophyl-L-Lysyl-L-Threonyl-L-Phenylalanyl-L-Threonyl-L-Seryl-D-Cysteine Cyclic (1-12)-Disulfide] (H-C[dY][dW]FF[dW]KTFTS[dC]-OH; disulfide 1-12)",49 ± 5,86 ± 11,,13 ± 2,,236 ± 27,,"GH [4, 5]: 57 ± 14"
"CC(C)C[C@H]1NC(=O)[C@@H](N)CSSC[C@@H](C(=O)O)NC(=O)[C@H](CO)NC(=O)[C@H]([C@@H](C)O)NC(=O)[C@H](Cc2ccccc2)NC(=O)[C@H]([C@@H](C)O)NC(=O)[C@H](CCCCN)NC(=O)[C@@H](Cc2c[nH]c3ccccc23)NC(=O)[C@H](Cc2ccccc2)NC(=O)[C@H](Cc2ccccc2)NC(=O)[C@@H](Cc2ccc(O)cc2)NC1=O [G, L-Cysteinyl-D-Leucyl-D-Tyrosyl-L-Phenylalanyl-L-Phenylalanyl-D-Trypotophyl-L-Lysyl-L-Threonyl-L-Phenylalanyl-L-Threonyl-L-Seryl-L-Cysteine Cyclic (1-12)-Disulfide] (H-C[dL][dY]FF[dW]KTFTSC-OH; disulfide 1-12)",84 ± 11,94 ± 23,28 ± 16,,218 ± 44,,29 ± 16,"GH, 5 Hours ([2]; 1000 μg/kg. sc, rats, 5 hours): 93 ± 30 ng/mL; GH, 6 Hours ([2]; 1000 μg/kg. sc, rats, 6 hours): 72 ± 68 ng/mL"
"C[C@@H](O)[C@@H]1NC(=O)[C@H](Cc2ccccc2)NC(=O)[C@H]([C@@H](C)O)NC(=O)[C@H](CCCCN)NC(=O)[C@@H](Cc2c[nH]c3ccccc23)NC(=O)[C@H](Cc2ccccc2)NC(=O)[C@H](Cc2ccccc2)NC(=O)[C@@H](CCC(=O)O)NC(=O)[C@@H](Cc2ccc(O)cc2)NC(=O)[C@@H](N)CSSC[C@@H](C(=O)O)NC(=O)[C@H](CO)NC1=O [J, L-Cysteinyl-D-Tyrosyl-D-Glutamyl-L-Phenylalanyl-L-Phenylalanyl-D-Tryptophyl-L-Lysyl-L-Threonyl-L-Phenylalanyl-L-Threonyl-L-Seryl-L-Cysteine Cyclic (1-12)-Disulfide] (H-C[dY][dE]FF[dW]KTFTSC-OH; disulfide 1-12)",311 ± 68,179 ± 39,45 ± 4,,263 ± 28,,128 ± 24,
"C[C@@H](O)[C@@H]1NC(=O)[C@H](Cc2ccccc2)NC(=O)[C@H]([C@@H](C)O)NC(=O)[C@H](CCCCN)NC(=O)[C@@H](Cc2c[nH]c3ccccc23)NC(=O)[C@H](Cc2ccccc2)NC(=O)[C@H](Cc2ccccc2)NC(=O)[C@@H](Cc2c[nH]cn2)NC(=O)[C@@H](Cc2c[nH]cn2)NC(=O)[C@@H](N)CSSC[C@@H](C(=O)O)NC(=O)[C@H](CO)NC1=O [E, L-Cysteinyl-D-Histidyl-D-Histidyl-L-Phenylalanyl-L-Phenylalanyl-D-Tryptophyl-L-Lysyl-L-Threonyl-L-Phenylalanyl-L-Threonyl-L-Seryl-L-Cysteine Cyclic (1-12)-Disulfide] (H-C[dH][dH]FF[dW]KTFTSC-OH; disulfide 1-12)",36 ± 16,45 ± 10,,29 ± 12,,182 ± 18,,"GH [4, 5]: 34 ± 3"
"C[C@@H](O)[C@@H]1NC(=O)[C@H](Cc2ccccc2)NC(=O)[C@H]([C@@H](C)O)NC(=O)[C@H](CCCCN)NC(=O)[C@@H](Cc2c[nH]c3ccccc23)NC(=O)[C@H](Cc2ccccc2)NC(=O)[C@H](Cc2ccccc2)NC(=O)[C@@H](Cc2c[nH]c3ccccc23)NC(=O)[C@@H](CCCNC(=N)N)NC(=O)[C@@H](N)CSSC[C@@H](C(=O)O)NC(=O)[C@H](CO)NC1=O [D, L-Cysteinyl-D-Arginyl-D-Tryptophyl-L-Phenylalanyl-L-Phenylalanyl-D-Tryptophyl-L-Lysyl-L-Threonyl-L-Phenylalanyl-L-Threonyl-L-Seryl-L-Cysteine Cyclic (1-12)-Disulfide] (H-C[dR][dW]FF[dW]KTFTSC-OH; disulfide 1-12)",28 ± 3,11 ± 2,53 ± 9,,35 ± 2,,21 ± 2,
"C[C@@H](O)[C@@H]1NC(=O)[C@H](CCCCN)NC(=O)[C@@H](Cc2c[nH]c3ccccc23)NC(=O)[C@H](Cc2ccccc2)NC(=O)[C@H](Cc2ccccc2)NC(=O)[C@@H](CCCNC(=N)N)NC(=O)[C@@H](Cc2ccc(O)cc2)NC(=O)[C@@H](N)CSSC[C@H](C(=O)O)NC(=O)[C@H](CO)NC(=O)[C@H]([C@@H](C)O)NC(=O)[C@H](Cc2ccccc2)NC1=O [F, L-Cysteinyl-D-Tryrosyl-D-Arginyl-L-Phenylalanyl-L-Phenylalanyl-D-Tryptophyl-L-Lysyl-L-Threonyl-L-Phenylalanyl-L-Threonyl-L-Seryl-D-Cysteine Cyclic (1-12)-Disulfide] (H-C[dY][dR]FF[dW]KTFTS[dC]-OH; disulfide 1-12)",113 ± 34,99 ± 11,24 ± 5,,103 ± 24,,11 ± 3,
